One test deals with hippocampal neurons. The experiment in a line: Neurite extension assay (length of longest neurite) in primary hippocampal neurons. Format: cell-based, rat. The note with it: for effect on neurite extension (pharmacological induction): hippocampal neurons, 40 mM KCl, 10 μM FSK, 100 μM IBMX, 20 μM milrinone or 10 μM rolipram for 2 days. As to the method:
Primary rat hippocampal neurons: Hippocampal cultures were prepared from Sprague Dawley rat embryonic day 18 embryos. Briefly, the rat hippocampal CA1-CA3 region was dissected in PBS medium with 10 mM D-glucose and digested with 0.05% trypsin-EDTA in PBS with 11 mM D-glucose for 30 min at 37° C. The dissociated tissues were centrifuged at 250 g for 2 min and then triturated with fire polished glass pipet in Hank's balanced salt solution (HBSS) with calcium and magnesium in plating medium (10% v/v horse serum in DMEM). Dissociated neurons were plated on nitric acid-treated 25-mm cover glass coated with poly-L-lysine in plating medium. Four hours after plating, the medium was replaced with maintenance medium supplemented with 1% N2, 2% B27 (Invitrogen, Carlsbad, Calif., USA), 5 mM D-glucose, 1 mM sodium pyruvate. Four days later, 4 μM arabinosyl cytosine was added to inhibit glial proliferation and the neurons were either transfected with JPEI or infected with adenovirus.
Live cell imaging was performed 36-72 h after transfection/infection as described below. For neurite extension assays, the cells were cultured for two days in DMEM with 1 μg/ml chicken egg albumin and 1 mM sodium pyruvate. 40 mM KCl, 10 μM FSK, 100 μM IBMX, 20 μM Milrinone, 10 μM Rolipram were included as indicated. Two days later, the neurons were fixed and stained with antibodies. Nuclei were counter stained with DAPI and SlowFade Gold antifade solution (Molecular Probes) was added before coverslip mounting. Images were acquired with IPLab or Slidebook 6 by wide-field microscopy (Leica DMI 6000B or Zeiss Axio Observer 7) and processed with Adobe PhotoShop CSS 12.1. The length of the longest neurite for ˜15 neurons average per condition was measured for each experiment with ImageJ with Simple Neurite Tracer plugin. Other neuronal images were acquired using a Zeiss 880 confocal microscope.

Test [1] deals with PKA (protein kinase A, in Cos-7 cells). The test can be described thus: cell-based or functional assay.

`CC(C)Cn1c(=O)n(C)c(=O)c2[nH]cnc21` [IBMX, 3-isobutyl-1-methylxanthine]: the “effect on neurite extension (pharmacological induction)” value (“effect … (pharmacological induction)” below) in the test with hippocampal neurons is reported as “induced neurite extension”.

Turning to `[Cl-].[K+]` [KCl], the “increase in axon extension due to KCl depolarization alone” value is 29% with hippocampal neurons (GFP-expressing hippocampal neurons) and 37% in the test on hippocampal neurons (mCherry-nesprin-expressing hippocampal neurons). Moreover, in the test with hippocampal neurons, the “effect … (pharmacological induction)” value was “induced neurite extension”.

For `Cc1[nH]c(=O)c(C#N)cc1-c1ccncc1` [milrinone], in the test on hippocampal neurons, the “effect … (pharmacological induction)” value is reported as “no effect on neurite growth”.

Turning to `COc1ccc(C2CNC(=O)C2)cc1OC1CCCC1` (centres unmarked) [rolipram], the “effect … (pharmacological induction)” value in the test with hippocampal neurons is “induced neurite extension”.

In test [1], “mAKAPα WT (N-terminally myc-tagged rat mAKAPα) (from UniProt Q9WVC7 1-2314)” displayed an amplitude of PN-AKAR4 FRET transient after FSK pulse in Cos-7 cells of 50%.

B1: mAKAP-SR-GFP: GFP-tagged fragment encoding the mAKAP spectrin-repeat domains (amino acid residues 586-1286) (protein)
chain: GSDSIKSPVPLLSKNKSQKSSPPAPCHATQNGQVVEAWYGSDEYLALPSHLKQTEVLALKLESLTKLLPQKPRGETIQDIDDWELSEMNSDSEIYPTYHIKKKHTRLGTVSPSSSSDIASSLGESIESGPLSDILSDEDLCLPLSSVKKFTDEKSERPSSSEKNESHSATRSALIQKLMHDIQHQENYEAIWERIEGFVNKLDEFIQWLNEAMETTENWTPPKAETDSLRLYLETHLSFKLNVDSHCALKEAVEEEGHQLLELVVSHKAGLKDTLRMIASQWKELQRQIKRQHSWILRALDTIKAEILATDVSVEDEEGTGSPKAEVQLCHLETQRDAVEQMSLKLYSEQYTSGSKRKEEFANMSKAHAEGSNGLLDFDSEYQELWDWLIDMESLVMDSHDLMMSEEQQQHLYKRYSVEMSIRHLKKSELLSKVEALKKGGLSLPDDILEKVDSINEKWELLGKTLREKIQDTIAGHSGSGPRDLLSPESGSLVRQLEVRIKELKRWLRDTELFIFNSCLRQEKEGTSAEKQLQYFKSLCREIKQRRRGVASILRLCQHLLDDRDTCNLNADHQPMQLIIVNLERRWEAIVMQAVQWQTRLQKKMGKESETLNVIDPGLMDLNGMSEDALEWDETDISNKLISVHEESNDLDQDPEPMLPAVKLEETHHKDSGYEEEAGDCGGSPYTSNITAPSSPHIYQV
modifications: left off: large carriers
As to B1, in the test with hippocampal neurons (hippocampal neurons in defined media and with chronic KCl depolarization, vs GFP control), the “effect on axon outgrowth (longest neurite length)” value was “inhibited axon outgrowth”.

The record behind these values is patent publication US20220041667A1, “TARGETING OF MAKAP-PDE4D3 COMPLEXES IN NEURODEGENERATIVE DISEASE” (The Board of Trustees of the Leland Stanford Junior …, priority 2018, published 2022).
